Results published in US20100298141A1, “SUBSTITUTED PYRIDINE N-OXIDE HERBICIDES” (E. I. DU PONT DE NEMOURS AND COMPANY, priority 2007, published 2010).

Columns and labels:
morningglory = test: Test C pre-/postemergence test; type: in vivo, Ipomoea coccinea; settings: for Plant response rating, Morningglory: scale 0 to 100, 0 no effect, 100 complete control
Summary of the method: (§1)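 Seeds were planted and treated preemergence with test chemical in a non-phytotoxic solvent mixture containing surfactant. Postemergence applications of the same formulation went onto plants 2 to 18 cm tall (1- to 4-leaf stage). A dash marks no test result.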

Italian ryegrass = test: Test C pre-/postemergence test; type: in vivo, Lolium multiflorum; settings: for Plant response rating, Ryegrass, Italian: scale 0 to 100, 0 no effect, 100 complete control
Summary of the method: as §1

woolly cupgrass = test: Test C pre-/postemergence test; type: in vivo, Eriochloa villosa; settings: for Plant response rating, Cupgrass, Woolly: scale 0 to 100, 0 no effect, 100 complete control
Summary of the method: as §1

velvetleaf [1] = test: Test A pre-/postemergence greenhouse test; type: in vivo, Abutilon theophrasti; settings: for Velvetleaf plant response rating: 0 to 100 scale
Summary of the method: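 Herbicidal effect is a visual injury score given about ten days post-treatment by comparison with untreated controls. Preemergence plots received a directed spray onto sown loam–sand soil; postemergence plants, at the one- to two-leaf stage and 2–10 cm tall, were sprayed at the same time.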

barnyardgrass = test: Test C flooded paddy test; type: in vivo, Echinochloa crus-galli; settings: Flood
Summary of the method: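 Under a constant 3 cm flood, test compounds went directly into the paddy water. Following 13 to 15 days of greenhouse growth, treated species and controls were compared by eye.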

blackgrass = test: Test C pre-/postemergence test; type: in vivo, Alopecurus myosuroides; settings: for Plant response rating, Blackgrass: scale 0 to 100, 0 no effect, 100 complete control
Summary of the method: as §1

johnsongrass = test: Test C pre-/postemergence test; type: in vivo, Sorghum halepense; settings: for Plant response rating, Johnsongrass: scale 0 to 100, 0 no effect, 100 complete control
Summary of the method: as §1

green foxtail = test: Test C pre-/postemergence test; type: in vivo, Setaria viridis; settings: for Plant response rating, Foxtail, Green: scale 0 to 100, 0 no effect, 100 complete control
Summary of the method: as §1

velvetleaf [2] = test: Test C pre-/postemergence test; type: in vivo, Abutilon theophrasti; settings: Postemergence; for Plant response rating, Velvetleaf: scale 0 to 100, 0 no effect, 100 complete control
Summary of the method: as §1

giant foxtail = test: Test C pre-/postemergence test; type: in vivo, Setaria faberii; settings: for Plant response rating, Foxtail, Giant: scale 0 to 100, 0 no effect, 100 complete control
Summary of the method: as §1

corn = test: Test C pre-/postemergence test; type: in vivo, Zea mays; settings: for Plant response rating, Corn: scale 0 to 100, 0 no effect, 100 complete control
Summary of the method: as §1

downy brome = test: Test C pre-/postemergence test; type: in vivo, Bromus tectorum; settings: for Plant response rating, Bromegrass, Downy: scale 0 to 100, 0 no effect, 100 complete control
Summary of the method: as §1

soybean = test: Test C pre-/postemergence test; type: in vivo, Glycine max; settings: for Plant response rating, Soybean: scale 0 to 100, 0 no effect, 100 complete control
Summary of the method: as §1

wild oat = test: Test C pre-/postemergence test; type: in vivo, Avena fatua; settings: for Plant response rating, Oat, Wild: scale 0 to 100, 0 no effect, 100 complete control
Summary of the method: as §1

catchweed bedstraw = test: Test C pre-/postemergence test; type: in vivo, Galium aparine
Summary of the method: as §1

cocklebur = test: Test C pre-/postemergence test; type: in vivo, Xanthium strumarium; settings: for Plant response rating, Cocklebur: scale 0 to 100, 0 no effect, 100 complete control
Summary of the method: as §1

[3] = 31 g ai/ha, Preemergence, scale 0 to 100
[4] = 62 g ai/ha, preemergence, scale 0 (no effect) to 100 (complete control)
[5] = preemergence, 125 g ai/ha, scale 0 (no effect) to 100 (complete control)

CC(c1c(C(F)(F)F)nn(C)c1OC(F)F)S(=O)(=O)c1cccc[n+]1[O-] (stereo not shown) [Compound 5]
Morningglory plant response rating (morningglory; [3]): 85
Morningglory plant response rating (morningglory; [4]): 100
Plant response rating (0 to 100), Morningglory (morningglory; Postemergence, 31 g ai/ha): 5
Plant response rating, Morningglory (morningglory; Postemergence, 62 g ai/ha): 5
Plant response rating, Morningglory (morningglory; Postemergence, 125 g ai/ha): 10
Plant response rating, Morningglory (morningglory; Postemergence, 250 g ai/ha): 10
Plant response rating (0 to 100), Morningglory (morningglory; Preemergence, 250 g ai/ha): 100
Morningglory plant response rating (morningglory; [5]): 100
Ryegrass, Italian plant response rating (Italian ryegrass; [3]): 80
Ryegrass, Italian plant response rating (Italian ryegrass; [4]): 100
Plant response rating (0 to 100), Ryegrass, Italian (Italian ryegrass; Postemergence, 31 g ai/ha): 0
Plant response rating (0 to 100), Ryegrass, Italian (Italian ryegrass; Postemergence, 62 g ai/ha): 0
Plant response rating, Ryegrass, Italian (Italian ryegrass; Postemergence, 125 g ai/ha): 40
Plant response rating, Ryegrass, Italian (Italian ryegrass; Postemergence, 250 g ai/ha): 50
Plant response rating (0 to 100), Ryegrass, Italian (Italian ryegrass; Preemergence, 250 g ai/ha): 100
Ryegrass, Italian plant response rating (Italian ryegrass; [5]): 100
Cupgrass, Woolly plant response rating (woolly cupgrass; [3]): 85
Cupgrass, Woolly plant response rating (woolly cupgrass; [4]): 90
Plant response rating (0 to 100), Cupgrass, Woolly (woolly cupgrass; Postemergence, 31 g ai/ha): 0
Plant response rating, Cupgrass, Woolly (woolly cupgrass; Postemergence, 62 g ai/ha): 40
Plant response rating, Cupgrass, Woolly (woolly cupgrass; Postemergence, 125 g ai/ha): 40
Plant response rating, Cupgrass, Woolly (woolly cupgrass; Postemergence, 250 g ai/ha): 50
Plant response rating (0 to 100), Cupgrass, Woolly (woolly cupgrass; Preemergence, 250 g ai/ha): 100
Cupgrass, Woolly plant response rating (woolly cupgrass; [5]): 100
Velvetleaf plant response rating (velvetleaf [1]; Postemergence, 125 g ai/ha, 0 is no effect, 100 is complete control): 60
Velvetleaf plant response rating (velvetleaf [1]; Postemergence, 500 g ai/ha, 0 is no effect, 100 is complete control): 80
Velvetleaf plant response rating (velvetleaf [1]; Preemergence, 125 g ai/ha, 0 no effect, 100 complete control): 90
Plant response rating, Velvetleaf (velvetleaf [1]; Preemergence, 500 g ai/ha, 0 to 100 scale where 0 is no effect and 100 is complete control): 90
Plant response rating, Barnyardgrass (barnyardgrass; 31 g ai/ha, scale 0 to 100 (0 no effect, 100 complete control)): 70
Plant response rating, Barnyardgrass (barnyardgrass; 62 g ai/ha, scale 0 to 100, 0 no effect, 100 complete control, 13 to 15 days): 80
Plant response rating, Barnyardgrass (barnyardgrass; 125 g ai/ha, scale 0 to 100, 0 no effect, 100 complete control, 13 to 15 days): 85
Plant response rating, Barnyardgrass (barnyardgrass; 250 g ai/ha, scale 0 to 100 (0 no effect, 100 complete control)): 85
Blackgrass plant response rating (blackgrass; [3]): 80
Blackgrass plant response rating (blackgrass; [4]): 100
Plant response rating (0 to 100), Blackgrass (blackgrass; Postemergence, 31 g ai/ha): 0
Plant response rating, Blackgrass (blackgrass; Postemergence, 62 g ai/ha): 0
Plant response rating, Blackgrass (blackgrass; Postemergence, 250 g ai/ha): 40
Plant response rating (0 to 100), Blackgrass (blackgrass; Preemergence, 250 g ai/ha): 100
Blackgrass plant response rating (blackgrass; [5]): 100
Johnsongrass plant response rating (johnsongrass; [3]): 100
Johnsongrass plant response rating (johnsongrass; [4]): 100
Plant response rating (0 to 100), Johnsongrass (johnsongrass; Postemergence, 31 g ai/ha): 0
Plant response rating, Johnsongrass (johnsongrass; Postemergence, 62 g ai/ha): 0
Plant response rating, Johnsongrass (johnsongrass; Postemergence, 125 g ai/ha): 0
Plant response rating, Johnsongrass (johnsongrass; Postemergence, 250 g ai/ha): 10
Plant response rating (0 to 100), Johnsongrass (johnsongrass; Preemergence, 250 g ai/ha): 100
Johnsongrass plant response rating (johnsongrass; [5]): 100
Foxtail, Green plant response rating (green foxtail; [3]): 100
Foxtail, Green plant response rating (green foxtail; [4]): 100
Plant response rating (0 to 100), Foxtail, Green (green foxtail; Postemergence, 31 g ai/ha): 0
Plant response rating, Foxtail, Green (green foxtail; Postemergence, 62 g ai/ha): 0
Plant response rating, Foxtail, Green (green foxtail; Postemergence, 125 g ai/ha): 60
Plant response rating, Foxtail, Green (green foxtail; Postemergence, 250 g ai/ha): 65
Plant response rating (0 to 100), Foxtail, Green (green foxtail; Preemergence, 250 g ai/ha): 100
Foxtail, Green plant response rating (green foxtail; [5]): 100
Plant response rating (0 to 100), Velvetleaf (velvetleaf [2]; 31 g ai/ha): 0
Plant response rating (0 to 100), Velvetleaf (velvetleaf [2]; 62 g ai/ha): 0
Plant response rating, Velvetleaf (velvetleaf [2]; 125 g ai/ha): 5
Plant response rating, Velvetleaf (velvetleaf [2]; 250 g ai/ha): 50
Foxtail, Giant plant response rating (giant foxtail; [3]): 95
Foxtail, Giant plant response rating (giant foxtail; [4]): 95
Plant response rating (0 to 100), Foxtail, Giant (giant foxtail; Postemergence, 31 g ai/ha): 0
Plant response rating, Foxtail, Giant (giant foxtail; Postemergence, 62 g ai/ha): 5
Plant response rating, Foxtail, Giant (giant foxtail; Postemergence, 125 g ai/ha): 40
Plant response rating, Foxtail, Giant (giant foxtail; Postemergence, 250 g ai/ha): 70
Plant response rating (0 to 100), Foxtail, Giant (giant foxtail; Preemergence, 250 g ai/ha): 100
Foxtail, Giant plant response rating (giant foxtail; [5]): 98
Corn plant response rating (corn; [3]): 0
Corn plant response rating (corn; [4]): 40
Plant response rating (0 to 100), Corn (corn; Postemergence, 31 g ai/ha): 0
Plant response rating, Corn (corn; Postemergence, 62 g ai/ha): 0
Plant response rating, Corn (corn; Postemergence, 125 g ai/ha): 0
Plant response rating, Corn (corn; Postemergence, 250 g ai/ha): 0
Plant response rating (0 to 100), Corn (corn; Preemergence, 250 g ai/ha): 95
Corn plant response rating (corn; [5]): 55
Bromegrass, Downy plant response rating (downy brome; [3]): 0
Bromegrass, Downy plant response rating (downy brome; [4]): 20
Plant response rating (0 to 100), Bromegrass, Downy (downy brome; Postemergence, 31 g ai/ha): 0
Plant response rating, Bromegrass, Downy (downy brome; Postemergence, 62 g ai/ha): 0
Plant response rating, Bromegrass, Downy (downy brome; Postemergence, 125 g ai/ha): 0
Plant response rating, Bromegrass, Downy (downy brome; Postemergence, 250 g ai/ha): 0
Plant response rating (0 to 100), Bromegrass, Downy (downy brome; Preemergence, 250 g ai/ha): 60
Bromegrass, Downy plant response rating (downy brome; [5]): 25
Soybean plant response rating (soybean; [3]): 0
Plant response rating (0 to 100), Soybean (soybean; Postemergence, 31 g ai/ha): 0
Plant response rating (0 to 100), Soybean (soybean; Postemergence, 62 g ai/ha): 20
Plant response rating, Soybean (soybean; Postemergence, 125 g ai/ha): 35
Plant response rating, Soybean (soybean; Postemergence, 250 g ai/ha): 70
Plant response rating (0 to 100), Soybean (soybean; Preemergence, 250 g ai/ha): 0
Oat, Wild plant response rating (wild oat; [3]): 20
Oat, Wild plant response rating (wild oat; [4]): 60
Plant response rating (0 to 100), Oat, Wild (wild oat; Postemergence, 31 g ai/ha): 0
Plant response rating, Oat, Wild (wild oat; Postemergence, 62 g ai/ha): 0
Plant response rating, Oat, Wild (wild oat; Postemergence, 125 g ai/ha): 0
Plant response rating, Oat, Wild (wild oat; Postemergence, 250 g ai/ha): 30
Plant response rating (0 to 100), Oat, Wild (wild oat; Preemergence, 250 g ai/ha): 75
Oat, Wild plant response rating (wild oat; [5]): 70
Galium plant response rating (catchweed bedstraw; [3]): 85
Galium plant response rating (catchweed bedstraw; [4]): 90
Plant response rating (0 to 100), Galium (catchweed bedstraw; Preemergence, 250 g ai/ha): 100
Galium plant response rating (catchweed bedstraw; [5]): 100
Cocklebur plant response rating (cocklebur; [3]): 0
Cocklebur plant response rating (cocklebur; [4]): 0
Plant response rating (0 to 100), Cocklebur (cocklebur; Postemergence, 31 g ai/ha): 0
Plant response rating, Cocklebur (cocklebur; Postemergence, 62 g ai/ha): 0
Plant response rating, Cocklebur (cocklebur; Postemergence, 125 g ai/ha): 0
Plant response rating, Cocklebur (cocklebur; Postemergence, 250 g ai/ha): 10
Plant response rating (0 to 100), Cocklebur (cocklebur; Preemergence, 250 g ai/ha): 0
Cocklebur plant response rating (cocklebur; [5]): 0
